{
  "source": "patent US11173165B2",
  "about": "“Optimizing mifepristone levels for Cushing's patients” (Corcept Therapeutics, Inc., priority 2015, dated 2021)",
  "key": {"[1]": {"target": "glucocorticoid receptor (GR) (Homo sapiens, UniProt P04150)", "sequence (P04150 whole entry)": "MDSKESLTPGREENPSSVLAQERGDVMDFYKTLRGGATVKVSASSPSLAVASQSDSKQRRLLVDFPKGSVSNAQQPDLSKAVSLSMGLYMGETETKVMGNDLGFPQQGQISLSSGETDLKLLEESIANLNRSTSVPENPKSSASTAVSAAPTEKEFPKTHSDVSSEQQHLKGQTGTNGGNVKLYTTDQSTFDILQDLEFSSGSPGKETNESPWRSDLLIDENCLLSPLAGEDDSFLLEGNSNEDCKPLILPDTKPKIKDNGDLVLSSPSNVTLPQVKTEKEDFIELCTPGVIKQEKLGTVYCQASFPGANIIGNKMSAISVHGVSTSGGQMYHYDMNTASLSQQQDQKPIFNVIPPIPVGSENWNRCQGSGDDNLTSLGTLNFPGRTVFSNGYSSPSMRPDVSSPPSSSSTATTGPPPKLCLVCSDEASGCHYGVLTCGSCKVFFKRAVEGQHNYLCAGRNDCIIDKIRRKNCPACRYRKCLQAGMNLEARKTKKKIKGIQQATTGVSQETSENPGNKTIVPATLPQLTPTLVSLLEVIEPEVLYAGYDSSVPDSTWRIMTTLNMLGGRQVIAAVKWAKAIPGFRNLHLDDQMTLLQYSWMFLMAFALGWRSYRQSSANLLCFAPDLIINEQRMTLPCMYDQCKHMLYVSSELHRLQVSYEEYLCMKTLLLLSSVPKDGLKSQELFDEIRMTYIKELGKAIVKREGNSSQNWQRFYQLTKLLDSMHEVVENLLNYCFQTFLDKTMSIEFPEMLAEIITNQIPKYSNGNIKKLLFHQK", "conditions": "cited from earlier work"}, "[2]": {"system": "patients with a diagnosis of Cushing's syndrome", "assay": "Optimal response to mifepristone in Phase III open label study of Cushing's syndrome", "type": "in vivo, human", "conditions": "responders who completed the study", "experimental": "This example provides an open label study of the safety and efficacy in the treatment of Cushing's syndrome. The study was a Phase III trial performed using several investigators at several different sites. […] The number of patients was 50. Patients eligible for randomization were male or nonpregnant female outpatients, and inpatients, if clinically required, with a diagnosis of Cushing's syndrome. Mifepristone was used as the test drug at 300 (1×300 mg tablet), 600 (2×300 mg tablet), 900 (3×300 mg tablet) and 1200 mg (4×300 mg tablet) once a day by mouth. Safety visits occurred at Days 21 and 35. If clinically necessary, a patient was treated as an inpatient. If early termination occurred prior to day 35, the patient returned for a safety follow up visit at day 35. The primary efficacy endpoint was the proportion of patients with at least a 25% reduction from baseline on a standard two hour oral glucose tolerance test or a […] in their diastolic blood pressure at study end (6 months). The secondary endpoints were: (1) the patient's global impression; and (2) reduction in previously used antihypertensive medication. The criteria for assessing study efficacy objective was the proportion of patients with at least a 25% reduction from baseline on a standard two hour oral glucose tolerance test or a […] in their diastolic blood pressure at study end (6 months)."}, "[3]": {"conditions": "in vivo; cited from earlier work"}, "[4]": {"conditions": "cited from earlier work"}, "[5]": {"assay": "Mifepristone trough plasma level (MIFE-Ctrough) in Phase III open label study of Cushing's syndrome", "type": "in vivo, human", "conditions": "for MIFE-Ctrough, Mean / MIFE-Ctrough, Max / MIFE-Ctrough, Median / MIFE-Ctrough, Min: responders who completed the study", "experimental": "Three (3) mL of blood was collected from a patient in a vacutainer containing sodium heparin. The blood was centrifuged and the resulting plasma frozen at −70 to −80° C. until assay. For analysis, the plasma samples were warmed and prepared as follows: • 1. Using a pipette, 50.0 μL of the sample was aliquoted into a 16×100-mm glass test tube. When a partial volume aliquot was needed, the aliquot was added to the tube and diluted to full volume with blank human plasma. • 2. 20.0 μL of the internal standard, mifepristone-d4 (5.00 μg/mL in acetonitrile), was added to the tube, resulting in 2000.0 ng/mL mifepristone-d4 in plasma. • 3. The tube was vortexed for approximately 1 minute. • 4. 50.0 μL of 6% ammonium hydroxide was added to the tube. • 5. The tube was vortexed for approximately 1 minute. • 6. 2.00 mL of MTBE was added to the tube. • 7. 2.00 mL of hexane was added to the tube. • 8. The tube was vortexed for at least 15 minutes. • 9. The tube was centrifuged for at least 10 minutes at 2500 RPM (575×g). • 10. The aqueous layer was frozen in a freezer set to maintain −70° C. • 11. […] The tube was vortexed for approximately 1 minute. • 15. The tube was sonicated for approximately 1 minute. • 16. The tube was vortexed for approximately 1 minute. • 17. The sample was transferred to a labeled injection vial or well plate. • 18. The vial or plate was capped and checked for air bubbles. The sample was then analyzed by reverse-phase high pressure liquid chromatography using a water:acetonitrile:formic acid (60:40:0.1) mobile phase (isocratic) at a flow rate of 0.3 mL/min. The column was a phenyl column maintained at 50° C. Mifepristone elutes at 4.2 minutes. Following elution, the mobile phase was nebulized using heated nitrogen in a Z-spray source/interface and the ionized compounds detected using a tandem quadrupole mass spectrometer. Mifepristone (molecular weight of 430 g/mol) was detected at m/z 372.30. The internal standard mifepristone-d4 was detected at m/z 376.30. The ratio of the mifepristone peak height to the mifepristone-d4 peak height was calculated. The plasma concentration of mifepristone was then calculated by comparing the experimental ratio to a standard curve of mifepristone:mifepristone-d4 peak height ratio v. mifepristone concentration. The standard curve was generated by first measuring the mifepristone:mifepristone-d4 peak height ratios for mifepristone samples at 10, 20, 50, 100, 200, 500, 1000 and 2000 ng/mL where the mifepristone-d4 internal standard has a concentration of 2000 ng/mL. The mifepristone:mifepristone-d4 peak height ratios of these known solutions were then fit to a power equation (Mass Lynx by Micromass, Beverly, Mass.), and the sample with unknown concentrations of mifepristone was compared. […]"}, "[6]": {"conditions": "at first response, including early terminators"}},
  "data": [
    {"smiles": "CC#C[C@]1(O)CC[C@H]2[C@@H]3CCC4=CC(=O)CCC4=C3[C@@H](c3ccc(N(C)C)cc3)C[C@@]21C", "note": "[mifepristone, 17-beta-hydroxy-11-beta-(4-dimethyl-aminophenyl)-17-alpha-(1-propynyl)-estra-4,9-dien-3-one]", "values": [
      {"measurement": "binding to the glucocorticoid receptor (GR)", "setting": "[1]", "value": "high affinity"},
      {"measurement": "Cumulative Optimal Response (%)", "setting": "[2]; dose 300", "value": 20, "unit": "%"},
      {"measurement": "Optimal Response (%)", "setting": "[2]; dose 300", "value": 20, "unit": "%"},
      {"measurement": "Cumulative Optimal Response (%)", "setting": "[2]; dose 600", "value": 40, "unit": "%"},
      {"measurement": "Optimal Response (%)", "setting": "[2]; dose 600", "value": 20, "unit": "%"},
      {"measurement": "Cumulative Optimal Response (%)", "setting": "[2]; dose 900", "value": 60, "unit": "%"},
      {"measurement": "Optimal Response (%)", "setting": "[2]; dose 900", "value": 20, "unit": "%"},
      {"measurement": "Cumulative Optimal Response (%)", "setting": "[2]; dose 1200", "value": 100, "unit": "%"},
      {"measurement": "Optimal Response (%)", "setting": "[2]; dose 1200", "value": 40, "unit": "%"},
      {"measurement": "LD50 dose", "setting": "[3]", "value": "about 1000 mg/kg"},
      {"measurement": "blood serum level to be maintained", "setting": "[4]; patients suffering from a mental disorder", "value": "about 1300 ng/mL"},
      {"measurement": "difference in blood serum levels from one patient to another", "setting": "[4]; same dose, different patients", "value": "≤ 800", "unit": "%"},
      {"measurement": "MIFE-Ctrough at Response, Max", "setting": "[5]; [6]", "value": 4210.00, "unit": "ng/mL"},
      {"measurement": "MIFE-Ctrough at Response, Mean", "setting": "[5]; [6]", "value": 1968.68, "unit": "ng/mL"},
      {"measurement": "MIFE-Ctrough at Response, Median", "setting": "[5]; [6]", "value": 1770.00, "unit": "ng/mL"},
      {"measurement": "MIFE-Ctrough at Response, Min", "setting": "[5]; [6]", "value": 448.00, "unit": "ng/mL"},
      {"measurement": "MIFE-ΔCtrough from Prior Dose, Max", "setting": "[5]; [6]", "value": 2017.00, "unit": "ng/mL"},
      {"measurement": "MIFE-ΔCtrough from Prior Dose, Mean", "setting": "[5]; [6]", "value": 221.50, "unit": "ng/mL"},
      {"measurement": "MIFE-ΔCtrough from Prior Dose, Median", "setting": "[5]; [6]", "value": 250.00, "unit": "ng/mL"},
      {"measurement": "MIFE-ΔCtrough from Prior Dose, Min", "setting": "[5]; [6]", "value": -860.00, "unit": "ng/mL"},
      {"measurement": "MIFE-Ctrough, Mean", "setting": "[5]; dose 300 (mg once a day by mouth)", "value": 1774.28, "unit": "ng/mL"},
      {"measurement": "MIFE-Ctrough, Max", "setting": "[5]; dose 300", "value": 4130.00, "unit": "ng/mL"},
      {"measurement": "MIFE-Ctrough, Median", "setting": "[5]; dose 300", "value": 1455.00, "unit": "ng/mL"},
      {"measurement": "MIFE-Ctrough, Min", "setting": "[5]; dose 300", "value": 820.00, "unit": "ng/mL"},
      {"measurement": "MIFE-Ctrough, Mean", "setting": "[5]; dose 600 (mg once a day by mouth)", "value": 1951.66, "unit": "ng/mL"},
      {"measurement": "MIFE-Ctrough, Max", "setting": "[5]; dose 600", "value": 3850.00, "unit": "ng/mL"},
      {"measurement": "MIFE-Ctrough, Median", "setting": "[5]; dose 600", "value": 1630.00, "unit": "ng/mL"},
      {"measurement": "MIFE-Ctrough, Min", "setting": "[5]; dose 600", "value": 890.00, "unit": "ng/mL"},
      {"measurement": "MIFE-Ctrough, Mean", "setting": "[5]; dose 900 (mg once a day by mouth)", "value": 2107.70, "unit": "ng/mL"},
      {"measurement": "MIFE-Ctrough, Max", "setting": "[5]; dose 900", "value": 4230.00, "unit": "ng/mL"},
      {"measurement": "MIFE-Ctrough, Median", "setting": "[5]; dose 900", "value": 1820.00, "unit": "ng/mL"},
      {"measurement": "MIFE-Ctrough, Min", "setting": "[5]; dose 900", "value": 992.00, "unit": "ng/mL"},
      {"measurement": "MIFE-Ctrough, Mean", "setting": "[5]; dose 1200 (mg once a day by mouth)", "value": 2292.86, "unit": "ng/mL"},
      {"measurement": "MIFE-Ctrough, Max", "setting": "[5]; dose 1200", "value": 5440.00, "unit": "ng/mL"},
      {"measurement": "MIFE-Ctrough, Median", "setting": "[5]; dose 1200", "value": 2022.50, "unit": "ng/mL"},
      {"measurement": "MIFE-Ctrough, Min", "setting": "[5]; dose 1200", "value": 1060.00, "unit": "ng/mL"},
      {"measurement": "blood serum level to be maintained for a therapeutic response", "setting": "[5]; patients suffering from Cushing's syndrome", "value": "at least 1631 ng/mL"}
    ]}
  ]
}
